Here are results for eight compounds from patent EP0309789A1, “4-Oxo-3-quinolinecarboxylic acids useful as antibacterial agents and preparation thereof” (STERLING WINTHROP INC., priority 1987, dated 1989).

Values after ≈ are worked out from the molar mass of the structure shown. Where two headings read alike, the source gives them in different places.

The test system of one series is Staph. aureus. Put plainly: In vivo antibacterial activity in infected mice (protective dose). The settings on record: for Staph. aureus (PD₅₀) po / Staph. aureus (PD₅₀) sc: Mouse, one-half hour postinfection, deaths recorded for seven days; for Staph. aureus (PD₅₀) sc: subcutaneous; for activity relative to the prior art compounds: Staph. aureus, in vivo mouse, from Table II. Here is the method:
(§1) The in vivo antibacterial activity of the compounds of the invention was determined in female mice, 18-20 grams each. Aqueous solutions of the compounds to be tested were prepared by dissolving the free acid form in dilute sodium hydroxide and diluting the solution with distilled water to the desired concentration. Cultures of E. coli were grown in brain heart infusion broth, and the mice were inoculated intraperitoneally with 0.5 ml of the bacterial test inoculum suspended in saline. Cultures of Staph. aureus were thawed from frozen pooled stocks and mixed with 5% mucin. A 0.5 ml preparation was used to infect mice by i.p. inoculation. The mice were medicated subcutaneously (sc) or orally (po) with 0.5 ml of the test compound solution one-half hour postinfection. Deaths were recorded daily for seven days. Fifty percent protective dose values (PD₅₀) were calculated using probit analysis.

A further series has as its system E. coli. The description is as above. The settings on record: Mouse, one-half hour postinfection, deaths recorded for seven days; for E. coli (PD₅₀) sc: subcutaneous. The protocol: as §1
The subject of the next series is Streptococcus pneumoniae. In words: In vitro antimicrobial activity, microplate dilution procedure (MIC). In kind it is cell-based. The protocol: (§2) The in vitro antimicrobial activity of the compounds of the invention was determined by a microplate dilution procedure. […] Resulting suspensions were diluted 1/10 in the appropriate broth or used undiluted for the inoculum. […] The compounds were then serially diluted two-fold in DMSO to give a working stock concentration range plate. The last row of wells was left compound-free receiving only DMSO to serve as a growth control. Five mcl from each well of the working stock plate was transferred to corresponding wells of a separate plate containing 95 mcl/well of the appropriate broth. All dilutions were made with either an automated dilutor or manually. […] Plates were incubated as described above and read for visible growth. The minimal inhibitory concentration (MIC: expressed in mcg/ml) of each compound tested against each test microorganism was determined as the lowest concentration of compound which prevents visible microbial growth.

The next series deals with Escherichia coli. The series is described as above. Format: cell-based. Here is the method:
as §2

The next series deals with Streptococcus faecalis. The description is as above. The settings on record: Enterococcus faecalis. In kind it is cell-based. The protocol:
as §2

The test system of the next series is Micrococcus luteus. The description is as above. Format: cell-based. Here is the method: as §2
For a further series, the system named is Staphylococcus aureus. The description is as above. In kind it is cell-based. The settings on record: for activity relative to compound R / activity relative to compounds P and Q: from Table I; for MIC: Staphylococcus aureus. The protocol:
as §2

In a further series the test system is Pseudomonas aeruginosa. The series is described as above. Format: cell-based. The settings on record: read-out: PA MIC. The protocol:
as §2

For the next series, the system named is Bacteroides fragilis. In words: In vitro antimicrobial activity, microplate dilution procedure (MIC), anaerobic. In kind it is cell-based. Here is the method:
as §2

Series [1] in a line: Serum levels in monkeys after oral dosing. In kind it is in vivo. The settings on record: 25 mg/kg oral dosing; for half-life: monkey. Here is the method:
In monkeys, compounds A and C gave high and prolonged serum levels after 25 mg/kg oral dosing.

The mark [2] stands for this setting: Streptococcus faecalis, read-out: SF MIC.
The mark [3] stands for this setting: Strep. pneumoniae, read-out: MIC.

Regarding `Cc1cc(-c2c(F)c(F)c3c(=O)c(C(=O)O)cn(C4CC4)c3c2F)cc(C)n1` [B, 1-Cyclopropyl-7-(2,6-dimethyl-4-pyridinyl)-5,6,8-trifluoro-1,4-dihydro-4-oxo-3-quinolinecarboxylic acid], the “Staph. aureus (PD₅₀) po” value with Staph. aureus was 0.14 mg/kg. Besides, the “Staph. aureus (PD₅₀) sc” value in the series on Staph. aureus is listed as 0.08 mg/kg. In addition, the “activity relative to the prior art compounds” value with Staph. aureus is on record as 9-30 times. In addition, the “E. coli (PD₅₀) po” value with E. coli is recorded as 10.8 mg/kg. The “E. coli (PD₅₀) sc” value with E. coli was found to be 8.9 mg/kg. Moreover, the MIC in the series with Streptococcus pneumoniae (read-out: SP MIC) came to 0.03 µg/mL (≈ 0.0773 µM); in the series on Escherichia coli (read-out: EC MIC) it was 0.125 µg/mL (≈ 0.322 µM); in the series with Streptococcus faecalis (setting [2]), 0.06 µg/mL (≈ 0.155 µM); in the series with Micrococcus luteus (read-out: ML MIC), 0.5 µg/mL (≈ 1.29 µM); with Staphylococcus aureus (read-out: SA MIC), 0.008 µg/mL (≈ 0.0206 µM); with Pseudomonas aeruginosa it was 8 µg/mL (≈ 20.6 µM). The MIC with Bacteroides fragilis (anaerobic, read-out: BF MIC) stood at 0.5 µg/mL (≈ 1.29 µM). Besides, the “activity relative to compound R” value in the series on Staphylococcus aureus (Staph. aureus) is recorded as “four times as active”. The “activity relative to compounds P and Q” value with Staphylococcus aureus (Staph. aureus) is reported as “thirty times as active”.

Consider `Cc1cc(-c2c(F)cc3c(=O)c(C(=O)O)cn(C4CC4)c3c2F)cc(C)n1` [C, 1-Cyclopropyl-6,8-difluoro-7-(2,6-dimethyl-4-pyridinyl)-1,4-dihydro-4-oxo-3-quinolinecarboxylic acid], for which, in series [1], the maximum concentration amounted to 34 µg/mL, the “time of maximum concentration” value came out at 5.5 h and the half-life was 20 h. Further, in the series on Staph. aureus, the “Staph. aureus (PD₅₀) po” value worked out at 0.09 mg/kg, the “Staph. aureus (PD₅₀) sc” value is reported as 0.06 mg/kg and the “activity relative to the prior art compounds” value was 9-30 times. In the series with E. coli, the “E. coli (PD₅₀) po” value is 5.7 mg/kg and the “E. coli (PD₅₀) sc” value came out at 6.1 mg/kg. The MIC in the series on Streptococcus pneumoniae (read-out: SP MIC) stood at 0.016 µg/mL (≈ 0.0432 µM). In the series with Escherichia coli (read-out: EC MIC), the MIC is 0.06 µg/mL (≈ 0.162 µM). The MIC in the series on Streptococcus faecalis (setting [2]) is 0.06 µg/mL (≈ 0.162 µM). Moreover, the MIC in the series with Micrococcus luteus (read-out: ML MIC) is 0.25 µg/mL (≈ 0.675 µM). Besides, in the series on Staphylococcus aureus (Staph. aureus), the “activity relative to compound R” value was “four times as active”; the “activity relative to compounds P and Q” value is given as “thirty times as active”. In addition, in the series with Staphylococcus aureus (read-out: SA MIC), the MIC was found to be 0.008 µg/mL (≈ 0.0216 µM). The MIC in the series with Pseudomonas aeruginosa was 4 µg/mL (≈ 10.8 µM). The MIC with Bacteroides fragilis (anaerobic, read-out: BF MIC) was found to be 0.125 µg/mL (≈ 0.338 µM).

Regarding `Cc1cc(-c2cc3c(cc2F)c(=O)c(C(=O)O)cn3C2CC2)cc(C)n1` [Compound A, 1-Cyclopropyl-7-(2,6-dimethyl-4-pyridinyl)-6-fluoro-1,4-dihydro-4-oxo-3-quinolinecarboxylic acid], in [1], the maximum concentration came to 13 µg/mL, the “time of maximum concentration” value was 7 h and the half-life was 13 h. Further, in the series with Staph. aureus, the “Staph. aureus (PD₅₀) po” value turned out to be 0.20 mg/kg, the “Staph. aureus (PD₅₀) sc” value turned out to be 0.08 mg/kg and the “activity relative to the prior art compounds” value is 9-30 times. For the same compound, in the series on E. coli, the “E. coli (PD₅₀) po” value is given as 3.8 mg/kg and the “E. coli (PD₅₀) sc” value is given as 3.1 mg/kg. In the series with Streptococcus pneumoniae (read-out: SP MIC), the MIC stood at 0.03 µg/mL (≈ 0.0851 µM). In the series on Escherichia coli (read-out: EC MIC), the MIC came to 0.03 µg/mL (≈ 0.0851 µM). In addition, the MIC in the series on Streptococcus faecalis (setting [2]) worked out at 0.06 µg/mL (≈ 0.17 µM). The MIC with Micrococcus luteus (read-out: ML MIC) amounted to 0.5 µg/mL (≈ 1.42 µM). For the same compound, in the series with Staphylococcus aureus (Staph. aureus), the “activity relative to compound R” value is on record as “four times as active”; the “activity relative to compounds P and Q” value is “thirty times as active”. Further, in the series with Staphylococcus aureus (read-out: SA MIC), the MIC was 0.008 µg/mL (≈ 0.0227 µM). Besides, the MIC in the series on Pseudomonas aeruginosa stood at 2 µg/mL (≈ 5.68 µM). In the series with Bacteroides fragilis (anaerobic, read-out: BF MIC), the MIC stood at 0.5 µg/mL (≈ 1.42 µM).

In the case of `Cc1cc(-c2c(F)c(Sc3ccccc3)c3c(=O)c(C(=O)O)cn(C4CC4)c3c2F)cc(C)n1` [Example 6(c), 1-cyclopropyl-7-(2,6-dimethyl-4-pyridinyl)-6,8-difluoro-5-(phenylthio)-1,4-dihydro-4-oxo-3-quinolinecarboxylic acid], the MIC in the series with Streptococcus pneumoniae (setting [3]) came out at 2 µg/mL (≈ 4.18 µM); in the series with Streptococcus faecalis (Strep. faecalis, read-out: MIC), 16 µg/mL (≈ 33.4 µM); in the series with Micrococcus luteus (M. luteus, read-out: MIC), 16 µg/mL (≈ 33.4 µM); in the series on Staphylococcus aureus (Staph. aureus, read-out: MIC), 1 µg/mL (≈ 2.09 µM); in the series with Bacteroides fragilis (B. fragilis, read-out: MIC) it was 16 µg/mL (≈ 33.4 µM).

As to `Cc1cc(-c2c(F)cc3c(=O)c(C(=O)O)cn(C4CC4)c3c2SCc2ccccc2)cc(C)n1` [Example 7, 1-cyclopropyl-7-(2,6-dimethyl-4-pyridinyl)-6-fluoro-1,4-dihydro-4-oxo-8-(benzylthio)-3-quinolinecarboxylic acid], the MIC is 2 µg/mL (≈ 4.21 µM) in the series with Streptococcus pneumoniae (setting [3]); 4 µg/mL (≈ 8.43 µM) in the series on Escherichia coli (E. coli, read-out: MIC); 2 µg/mL (≈ 4.21 µM) in the series on Streptococcus faecalis (Strep. faecalis, read-out: MIC); 64 µg/mL (≈ 135 µM) in the series on Micrococcus luteus (M. luteus, read-out: MIC); < 0.125 µg/mL with Staphylococcus aureus (Staph. aureus, read-out: MIC); 64 µg/mL (≈ 135 µM) in the series on Bacteroides fragilis (B. fragilis, read-out: MIC).

Take `CCn1cc(C(=O)O)c(=O)c2ccc(-c3cc(C)nc(C)c3)cc21` [P, 7-(2,6-Dimethyl-4-pyridinyl)-1-ethyl-1,4-dihydro-4-oxo-3-quinolinecarboxylic acid, reference compound]: the “Staph. aureus (PD₅₀) po” value with Staph. aureus is listed as 3.8 mg/kg. Also, the “Staph. aureus (PD₅₀) sc” value in the series on Staph. aureus turned out to be 2.37 mg/kg. In addition, the “E. coli (PD₅₀) po” value in the series on E. coli turned out to be 17.9 mg/kg. The “E. coli (PD₅₀) sc” value in the series with E. coli was 13.5 mg/kg. Also, the MIC with Streptococcus pneumoniae (read-out: SP MIC) amounted to 2 µg/mL (≈ 6.2 µM); with Escherichia coli (read-out: EC MIC) it was 0.25 µg/mL (≈ 0.776 µM); in the series with Streptococcus faecalis (setting [2]), 1 µg/mL (≈ 3.1 µM); with Micrococcus luteus (read-out: ML MIC), 8 µg/mL (≈ 24.8 µM); with Staphylococcus aureus (read-out: SA MIC), 0.25 µg/mL (≈ 0.776 µM); in the series with Pseudomonas aeruginosa, 32 µg/mL (≈ 99.3 µM). The MIC in the series with Bacteroides fragilis (anaerobic, read-out: BF MIC) is 16 µg/mL (≈ 49.6 µM).

Consider `O=C(O)c1cn(C2CC2)c2cc(N3CCNCC3)c(F)cc2c1=O` [Q, 1-Cyclopropyl-6-fluoro-7-(1-piperazinyl)-1,4-dihydro-4-oxo-3-quinolinecarboxylic acid, reference compound], for which the MIC in the series on Streptococcus pneumoniae (read-out: SP MIC) was determined as 0.25 µg/mL (≈ 0.754 µM); in the series on Escherichia coli (read-out: EC MIC) it was 0.004 µg/mL (≈ 0.0121 µM); in the series with Streptococcus faecalis (setting [2]) it was 0.5 µg/mL (≈ 1.51 µM); in the series with Micrococcus luteus (read-out: ML MIC), 2 µg/mL (≈ 6.04 µM); in the series with Staphylococcus aureus (read-out: SA MIC), 0.25 µg/mL (≈ 0.754 µM); in the series with Pseudomonas aeruginosa it was 0.125 µg/mL (≈ 0.377 µM). Besides, the MIC in the series on Bacteroides fragilis (anaerobic, read-out: BF MIC) stood at 2 µg/mL (≈ 6.04 µM).

For the compound `CCn1cc(C(=O)O)c(=O)c2cc(F)c(-c3cc(C)nc(C)c3)cc21` [R, 7-(2,6-Dimethyl-4-pyridinyl)-1-ethyl-6-fluoro-1,4-dihydro-4-oxo-3-quinolinecarboxylic acid, reference compound], the “Staph. aureus (PD₅₀) po” value in the series with Staph. aureus is 1.38 mg/kg. Also, the “Staph. aureus (PD₅₀) sc” value with Staph. aureus was 0.71 mg/kg. In addition, the “E. coli (PD₅₀) po” value in the series on E. coli is on record as 8.24 mg/kg. Further, in the series on E. coli, the “E. coli (PD₅₀) sc” value worked out at 5.39 mg/kg. Besides, the MIC amounted to 0.25 µg/mL (≈ 0.735 µM) in the series on Streptococcus pneumoniae (read-out: SP MIC); 0.06 µg/mL (≈ 0.176 µM) in the series with Escherichia coli (read-out: EC MIC); 0.25 µg/mL (≈ 0.735 µM) with Streptococcus faecalis (setting [2]); 0.5 µg/mL (≈ 1.47 µM) in the series with Micrococcus luteus (read-out: ML MIC); 0.03 µg/mL (≈ 0.0881 µM) with Staphylococcus aureus (read-out: SA MIC); 4 µg/mL (≈ 11.8 µM) in the series with Pseudomonas aeruginosa. Also, in the series on Bacteroides fragilis (anaerobic, read-out: BF MIC), the MIC amounted to 2 µg/mL (≈ 5.88 µM).

One may read the MIC as the lowest concentration found to suppress growth. Broadly, the half-life is the time needed for the level to fall by half in the phase considered. Low values mean fast loss, high ones slow loss.
